Test results published in ChEMBL document CHEMBL1201862, “PubChem BioAssay data set” (2004).
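Exposure lasted 48 hours, with cells grown in 96-well plates and compounds tested at five concentrations. Abbreviation: GI50, concentration required for 50% inhibition of growth.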 Active and inactive are the calls of the source. Rule as the data show it: active = GI50 up to about 1.1 µM and inactive = higher.

Columns and labels:
Experiment in all cases: NCI anticancer screen, dose series, 48 h
A549 = tested on: A549
BT-549 = tested on: BT-549
SK-MEL-5 = tested on: SK-MEL-5
EKVX = tested on: EKVX
OVCAR-8 = tested on: OVCAR-8
CAKI-1 = tested on: CAKI-1
SK-OV-3 = tested on: SK-OV-3
NCI-H522 = tested on: NCI-H522
NCI-H226 = tested on: NCI-H226
HOP-62 = tested on: HOP-62
U-251 = tested on: U-251
UACC-62 = tested on: UACC-62
KM12 = tested on: KM12
HT-29 = tested on: HT-29
IGROV-1 = tested on: IGROV-1
SK-MEL-28 = tested on: SK-MEL-28
HCC 2998 = tested on: HCC 2998
M14 = tested on: M14
HCT-116 = tested on: HCT-116
SK-MEL-2 = tested on: SK-MEL-2

Row | SMILES | GI50 (A549) | GI50 (BT-549) | GI50 (SK-MEL-5) | GI50 (EKVX) | GI50 (OVCAR-8) | GI50 (CAKI-1) | GI50 (SK-OV-3) | GI50 (NCI-H522) | GI50 (NCI-H226) | GI50 (HOP-62) | GI50 (U-251) | GI50 (UACC-62) | GI50 (KM12) | GI50 (HT-29) | GI50 (IGROV-1) | GI50 (SK-MEL-28) | GI50 (HCC 2998) | GI50 (M14) | GI50 (HCT-116) | GI50 (SK-MEL-2)
1 | OC1CC2CCC(C1)N2CCCN1c2ccccc2Sc2ccc(Cl)cc21 (stereo not given) | 2.54 µM (inactive) | 4.86 µM (inactive) | 1.73 µM (inactive) | 3.72 µM (inactive) | 2.11 µM (inactive) | 3.01 µM (inactive) | 3.37 µM (inactive) | 1.99 µM (inactive) | 5.94 µM (inactive) | 4.73 µM (inactive) | 1.87 µM (inactive) | 1.64 µM (inactive) | 1.95 µM (inactive) | 1.67 µM (inactive) | 1.98 µM (inactive) | 1.81 µM (inactive) | 0.338 µM (active) | 1.81 µM (inactive) | 1.83 µM (inactive) | 1.69 µM (inactive)
2 | CC1=NN2C(=N)/C(=C/c3ccccc3)C(=O)N=C2S1 | > 100 µM (inactive) | > 100 µM (inactive) | > 100 µM (inactive) | > 100 µM (inactive) | > 100 µM (inactive) | > 100 µM (inactive) | > 100 µM (inactive) | > 36.9 µM (inactive) | > 100 µM (inactive) | > 100 µM (inactive) | > 100 µM (inactive) | > 100 µM (inactive) | > 100 µM (inactive) | > 100 µM (inactive) | > 100 µM (inactive) | > 100 µM (inactive) | > 100 µM (inactive) | > 100 µM (inactive) | > 100 µM (inactive) | > 100 µM (inactive)
3 | Oc1cccnc1CN1CCCCC1 | > 100 µM (inactive) | > 100 µM (inactive) | > 100 µM (inactive) | > 100 µM (inactive) | > 100 µM (inactive) | > 100 µM (inactive) | > 100 µM (inactive) | > 100 µM (inactive) | > 100 µM (inactive) | > 100 µM (inactive) | > 100 µM (inactive) | > 100 µM (inactive) | > 100 µM (inactive) | > 100 µM (inactive) | > 100 µM (inactive) | > 100 µM (inactive) | > 100 µM (inactive) | > 100 µM (inactive) | > 100 µM (inactive) | > 100 µM (inactive)
4 | CC[C@@]1(OC(=O)C(N)CCCCN)C(=O)OCc2c1cc1n(c2=O)Cc2cc3ccccc3nc2-1 (stereo not given in full) | 0.0274 µM (active) | 0.218 µM (active) | 0.0377 µM (active) | 0.753 µM (active) | 0.0502 µM (active) | < 0.0152 µM (active) | 0.105 µM (active) | 0.0454 µM (active) | 0.111 µM (active) | < 0.0148 µM (active) | 0.0161 µM (active) | < 0.0128 µM (active) | 0.35 µM (active) | 0.133 µM (active) | 0.212 µM (active) | 0.442 µM (active) | 0.41 µM (active) | 0.0204 µM (active) | 0.0415 µM (active) | 0.5 µM (active)
5 | Nc1ccn([C@@H]2C=C(CO)[C@@H](O)[C@H]2O)c(=O)n1 | 0.0592 µM (active) | 2.06 µM (inactive) | 1.06 µM (active) | 0.562 µM (active) | 0.0817 µM (active) | 0.101 µM (active) | 0.248 µM (active) | 0.6 µM (active) | 5.53 µM (inactive) | 0.102 µM (active) | 0.321 µM (active) | 0.227 µM (active) | 0.143 µM (active) | 0.11 µM (active) | 0.108 µM (active) | 0.298 µM (active) | 1.29 µM (inactive) | 0.186 µM (active) | 0.05 µM (active) | 10 µM (inactive)
6 | CC(=N/NC(=S)N(C)C)/C(=N\NC(=S)N(C)C)c1ccccc1 | 2.76 µM (inactive) | 2.17 µM (inactive) | 1.64 µM (inactive) | 1.85 µM (inactive) | 2.02 µM (inactive) | 2.53 µM (inactive) | 1.98 µM (inactive) | 1.78 µM (inactive) | 1.71 µM (inactive) | 2.24 µM (inactive) | 2.8 µM (inactive) | 1.94 µM (inactive) | 2.15 µM (inactive) | 3.38 µM (inactive) | 1.66 µM (inactive) | 1.9 µM (inactive) | 0.989 µM (active) | 1.97 µM (inactive) | 2.93 µM (inactive) | 1.99 µM (inactive)
7 | CCC(c1ccc2cc(O)ccc2c1)C(C)(C)C(=O)O (stereo not given) | > 100 µM (inactive) | > 100 µM (inactive) | > 100 µM (inactive) | > 100 µM (inactive) | > 100 µM (inactive) | > 100 µM (inactive) | > 100 µM (inactive) | > 100 µM (inactive) | > 100 µM (inactive) | > 100 µM (inactive) | > 100 µM (inactive) | > 100 µM (inactive) | > 100 µM (inactive) | > 100 µM (inactive) | > 100 µM (inactive) | > 100 µM (inactive) | > 100 µM (inactive) | > 100 µM (inactive) | > 100 µM (inactive) | > 100 µM (inactive)
8 | N=C(N)N/N=C/c1c(-c2ccc(Cl)c([N+](=O)[O-])c2)nc2sccn12 | 1.75 µM (inactive) | 1.89 µM (inactive) | 1.73 µM (inactive) | 1.85 µM (inactive) | 2.11 µM (inactive) | 1.69 µM (inactive) | 1.78 µM (inactive) | 2.01 µM (inactive) | 1.92 µM (inactive) | 1.85 µM (inactive) | 1.67 µM (inactive) | 1.8 µM (inactive) | 0.861 µM (active) | 1.52 µM (inactive) | 1.72 µM (inactive) | 4.08 µM (inactive) | 1.6 µM (inactive) | 1.8 µM (inactive) | 1.37 µM (inactive) | 1.85 µM (inactive)
9 | COc1ccc(-c2csc(-n3c(-c4ccccc4)nc4c(Br)cc(Br)cc4c3=O)n2)cc1 | 25.5 µM (inactive) | 17.8 µM (inactive) | 18.2 µM (inactive) | 4.52 µM (inactive) | 26.7 µM (inactive) | 35.7 µM (inactive) | 28.1 µM (inactive) | 19.8 µM (inactive) | 27.7 µM (inactive) | 40.1 µM (inactive) | 28.7 µM (inactive) | 28.5 µM (inactive) | 33.6 µM (inactive) | 26.7 µM (inactive) | 2.92 µM (inactive) | 23.2 µM (inactive) | 28.1 µM (inactive) | 29.4 µM (inactive) | 22.5 µM (inactive) | 47.2 µM (inactive)
10 | O=C1NC(SSC2=NNC3(C(=O)N2)c2ccccc2-c2ccccc23)=NNC12c1ccccc1-c1ccccc12 | > 10 µM (inactive) | > 10 µM (inactive) | > 10 µM (inactive) | > 10 µM (inactive) | > 10 µM (inactive) | > 10 µM (inactive) | > 10 µM (inactive) | > 10 µM (inactive) | > 10 µM (inactive) | > 10 µM (inactive) | > 10 µM (inactive) | > 10 µM (inactive) | > 10 µM (inactive) | > 10 µM (inactive) | > 10 µM (inactive) | > 10 µM (inactive) | > 10 µM (inactive) | > 10 µM (inactive) | > 10 µM (inactive) | > 10 µM (inactive)
11 | O=C(O[C@@H](/C=C/c1ccccc1)P1(=O)N(Cc2ccccc2)[C@H]2CCCC[C@@H]2N1Cc1ccccc1)c1ccccc1 | 3.61 µM (inactive) | 5.96 µM (inactive) | 1.93 µM (inactive) | 4.12 µM (inactive) | 4.3 µM (inactive) | 2.66 µM (inactive) | 4.54 µM (inactive) | 3.55 µM (inactive) | 2.79 µM (inactive) | 2.82 µM (inactive) | 2.45 µM (inactive) | 2.12 µM (inactive) | 3.41 µM (inactive) | 3.08 µM (inactive) | 4.79 µM (inactive) | 7.78 µM (inactive) | 2.58 µM (inactive) | 4.18 µM (inactive) | 3.02 µM (inactive) | 1.85 µM (inactive)
12 | CC(C)NC(=O)OCc1c(COC(=O)NC(C)C)c(-c2ccc[n+](COC(=O)C3CC3)c2)n2c1CCC2 | 89.1 µM (inactive) | 76.6 µM (inactive) | > 100 µM (inactive) | > 100 µM (inactive) | 55 µM (inactive) | 20.1 µM (inactive) | 49.5 µM (inactive) | 27.1 µM (inactive) | > 100 µM (inactive) | 49.1 µM (inactive) | 56 µM (inactive) | 27.6 µM (inactive) | > 100 µM (inactive) | 79.4 µM (inactive) | > 100 µM (inactive) | > 100 µM (inactive) | > 100 µM (inactive) | 85.9 µM (inactive) | 60.5 µM (inactive) | 57.1 µM (inactive)
13 | N#C/C(=C\NC(=S)c1ccncc1)c1nc2ccccc2s1 | > 100 µM (inactive) | > 100 µM (inactive) | > 100 µM (inactive) | 67.1 µM (inactive) | > 100 µM (inactive) | > 100 µM (inactive) | > 100 µM (inactive) | > 100 µM (inactive) | > 100 µM (inactive) | > 100 µM (inactive) | 98.4 µM (inactive) | > 100 µM (inactive) | > 100 µM (inactive) | > 100 µM (inactive) | > 100 µM (inactive) | > 100 µM (inactive) | 21.7 µM (inactive) | > 100 µM (inactive) | > 100 µM (inactive) | 82.2 µM (inactive)
14 | CNC(=S)N/N=C(\C(=N/NC(=S)NC)c1ccccn1)c1ccccn1 | 5.74 µM (inactive) | 14.4 µM (inactive) | 1.53 µM (inactive) | 1.63 µM (inactive) | 0.687 µM (active) | 5.04 µM (inactive) | 0.726 µM (active) | 1.77 µM (inactive) | 2 µM (inactive) | 7.78 µM (inactive) | 0.289 µM (active) | 4.59 µM (inactive) | 14.2 µM (inactive) | < 0.01 µM (active) | 0.759 µM (active) | 29 µM (inactive) | > 23 µM (inactive) | 2.14 µM (inactive) | < 0.0306 µM (active) | 14.3 µM (inactive)
